Measured values reported in PMC5155426, “Organic Redox Species in Aqueous Flow Batteries: Redox Potentials, Chemical Stability and Solubility” (Scientific Reports, 2016).
Values joined by “and” are separate entries in the source; they are usually repeats but may differ in a detail not shown here. Equal entries are not always repeated. Where two headings read alike, the source gives them in different places.

Key:
[1] = CV of GC electrode ground with pure anthraquinone (Pourbaix diagram); type: physicochemical; conditions: for E0' of unsubstituted AQ: surface-attached AQ on GC electrode
Text: Organic R edox Species in Aqueous F low Batteries: R edox Potentials, C hem ical Stab ilit y and So lub ilit y S2: Pure Anthraquinone Pourbaix diagram
The redox potential of pure 9,10 -anthraquinone (Sigma-Aldrich, 97%) was estimated in aqueous solutions at different pH values by measuring the CV response of a GC electrode that had been freshly grinded with anthraquinone mixed with acetone to yield a surface covered/attached species. The CVs are shown in Figure 2, and it is noticed that as the pH increases, there is a significant side- reaction, and it was only possible to obtain reliable data up to pH 10. Thus, the redox potential at pH 13 is only extrapolated. The solutions were freshly prepared and were: 1 M H2SO4 f or pH 0, 0.2 M HCl/KCl buffer for pH 2, Reagecon Technical buffers for pH 4 and 7, 0 . 2 M acetate buffer f or pH 5 and Radiometer Analytical buffer (carbonate) for pH 10.
Figure 2 CVs for the anthraquinone-grinded GC electrode at different […]
Figure 3: The observed standard potential as a function of pH (right).
The line represents linear regression data. Colored arrows indicates the peaks interpreted as the pure AQ peaks used for the Pourbaix […]

[2] = Cyclic voltammetry: formal redox potential, peak current ratio, electrochemical reversibility; type: physicochemical
Experimental: The investigated compounds were used as-purchased and without any purification. […] For each series of CVs, a freshly polished electrode was used. The CVs for soluble compounds in 1 mM concentration were recorded in a glass beaker with a customized lid in nitrogen purged solutions of three different pHs, namely pH 0 (1 M H2SO4), pH 7 (0.5 M phosphate buffer) and pH 13 (1 M NaOH). The pH of the NaOH solution is taken as 13 to account for carbonization of the solution with exposure to air. A background CV was recorded before each CV experiment to exclude background contaminations. The CVs of insoluble compounds in 1 M H2SO4, or 0.5 M phosphate buffer were recorded as follows: 6 mL of the supporting electrolyte was mixed with approximately 4 mL of acetone, and then a small amount of the quinone was added so that its concentration was around 1 mM.
Each CV was analyzed in terms of peak potentials and peak currents. Peak currents were determined by subtracting a polynomial fit of the background from the recorded current as exemplified in Supplementary, S1. A plot of the absolute values of the peak currents to the square root of the scan rate was constructed and, when reasonable, a linear fit included to evaluate the electrochemical (Nernstian) reversibility of the electrochemical reaction. The peak current Ip for reversible reactions are given by equation (1).
Where F is the Faraday constant, R the gas constant, T the temperature, n the number of electron transferred, A the area of the electrode, DOthe diffusion coefficient and CO^*the bulk concentration of the analyte and v the scan rate. The peak current ratio is expected to be close to one for reversible species. The formal redox potential (E^0’), which is the adjusted form of the standard redox potential, where effects of the medium is taken into account, is reported here as the midpoint potential between the two peak potentials in the CV[24]. All half-cell potentials in this work refer to the normal hydrogen electrode (VNHE).

[3] = Aqueous solubility estimation (OECD test #105) in 1 M supporting electrolytes; conditions: thermodynamic from solid, Solubility
Experimental: After each addition the test tube was ultrasonicated and/or shaken vigorously using a Vortex Generator for at least 10 minutes at room temperature. Then the tube was inspected visually for undissolved sample and the addition of supporting electrolyte solution continued until the sample seemed just dissolved. The volumes just before and after full dissolution are used for calculating the solubility interval (Supplementary, S4 and S5) and the solubility is estimated as the average between the two.

[4] = pKa of the central (hydro)quinone groups estimated from the Pourbaix diagram; type: physicochemical; conditions: aqueous media, estimated from slope change in Pourbaix diagram, Fig. 5
Experimental: Quinones generally undergo a reversible two-electron reduction/oxidation. The redox potential is strongly pH dependent, as the reaction may or may not involve two protons as illustrated in the scheme-of-squares mechanistic pathway in Fig. 3 [26]. At pH < pKa1, the reaction includes two protons and thus E^0’ decreases with 59 mV per pH unit (at 25 °C)[24]. At pKa1 < pH < pKa2 and pKa2 < pH only one and no protons are involved, whereby E^0’ decreases with 30 and 0 mV per pH unit, respectively. Generally, the reactions that include protons are slower and result in a lower electrochemical rate constant (k0) and may ultimately lead to higher charge-transfer resistance in the RFB. Thus, the choice of pH in the RFB environment strongly influences quinone electrochemical performance.
Similarly to sulfonated AQs, the positions of the hydroxyl groups affect E^0’, but in acidic only to a small extent. […] The three former all have the hydroxyl groups on positions close to the quinone groups. The difference in E^0’ for these hydroxylated AQs and others may be found in the pKa values of the central (hydro)quinone groups. Those are not trivial to measure given the insolubility at lower pH values for hydroxylated AQs, but they can be estimated from the Pourbaix diagram in Fig. 5 [24][26]. For instance, in the Pourbaix diagram of AQDS(2,7), E^0’ follows the expected −59 mv/pH unit from pH 0 to pH 7 (pKa1). Then the first (hydro)quinone group deprotonates, and the slope changes to 30 mV/pH unit until pH 10 (pKa2) and E^0’ becomes pH-independent. […] Thus, if one can predict or measure reasonable values for these pKa values, it should be possible to predict which ones will have a more negative or positive E^0’ at higher pH.

[5] = Visual inspection of dissolved samples on standing (thixotropy, phase separation); type: physicochemical
Experimental: Dissolved samples were left to stand for 12 hours and visually inspected for thixotropy using a vortex generator. For very insoluble compounds the amount of sample was decreased to 0.01 g and the dissolution time increased up to 24 h.
In practical RFBs thixotropy is not wanted, as the redox solutions can be kept still for long times. […] Thixotropy of AQ dyes in aqueous dispersions has been described earlier, as well as some methods to overcome the problem such as addition of polyvinylpyrrolidone to the solution[43].

[6] = TEMPOL stability in aqueous buffer; type: physicochemical; conditions: after 30 days, uncharged state
Experimental: As an alternative to quinones, the nitroxide radical TEMPOL, was tested. […] This behaviour is similar to previous studies. […] A few other nitrogen-containing redox active species (Fig. 2 and Supplementary, S7) were included.

[7] = pH 0 (1 M H2SO4), midpoint of CV peak potentials, about 1 mM, acetone added for insoluble compounds
[8] = read-out: pKa1 of the (hydro)quinone groups
[9] = read-out: pKa2 of the (hydro)quinone groups

Structure (SMILES) | E0' lower than that of HQ(1,4) ([1]; pH 0) | E0' of unsubstituted AQ ([1]; pH 0) | E0' of unsubstituted AQ ([1]; pH 7) | E0' of unsubstituted AQ, estimated by extrapolation in Fig. 5 ([1]; pH 13, reliable data only up to pH 10) | Peak current ratio ([2]; pH 0) | formal redox potential E0' [2, 7] | Peak current ratio ([2]; pH 7) | Electrochemical reversibility ([2]; pH 13) | Peak current ratio ([2]; pH 13) | solubility ([3]; 1 M H2SO4 supporting electrolyte prepared from MilliQ water, aqueous buffer, 1 M H2SO4, room temperature, interval just after / before full dissolution) | solubility ([3]; 1 M KCl supporting electrolyte prepared from MilliQ water, saline or isotonic, 1 M KCl, room temperature) | pKa [4, 8] | pKa [4, 9] | Electrochemical reversibility ([2]; pH 0) | formal redox potential E0' ([2]; pH 0 (1 M H2SO4); midpoint of CV peak potentials; about 1 mM; acetone added for insoluble compounds; 7)) | Electrochemical reversibility ([2]; pH 7) | thixotropy ([5]; all supporting electrolytes, disodium form as received) | Comment: behaviour of the solution upon standing ([5]; electrolyte not stated) | degradation in aqueous buffer [6]
O=C1c2ccccc2C(=O)c2ccccc21 [AQ, 9,10-anthraquinone] | about 300 mV | 0.4 VNHE | 0 VNHE | ~−0.4 VNHE |  |  |  |  |  |  |  |  |  |  |  |  |  |  | 
O=C1c2ccc(O)cc2C(=O)c2ccc(O)cc21 [AQDH(2,6), 2,6-dihydroxy-9,10-anthraquinone] |  |  |  |  | 0.83(4) | 0.039(4) VNHE and 0.04 VNHE | 0.9(1) | Reversible | 1.1(1) | < 10 mM | < 10 mM | > 13 | > 13 |  |  |  |  |  | 
O=C1c2ccc(S(=O)(=O)O)cc2C(=O)c2cc(S(=O)(=O)O)ccc21 [AQDS(2,7), 9,10-anthraquinone-2,7-disulfonate disodium] |  |  |  |  | 0.7(1) | 0.165 VNHE | 0.56(3) | Reversible | 0.96(7) |  |  | 7 | 10 | Quasireversible | 0.165(5) VNHE | Quasireversible | thixotropy was observed | T hixotropic behaviour | 
CC1(C)CC(O)CC(C)(C)N1[O] [TEMPOL, 4-hydroxy-2,2,6,6-tetramethylpiperidine-1-oxyl] |  |  |  |  |  |  |  |  |  |  |  |  |  |  |  | reversible |  |  | no degradation
